Test results reported in patent US10221163B2 (priority 2015, dated 2019).
Like-named read-outs stand apart in the source and are kept apart here.

Key:
[1] = tested on: Pseudomonas aeruginosa efflux− (MB9799), IMP-1; type: cell-based; settings: C, D serine β-lactamase inhibitor closely related to relebactam; for P. aeruginosa expressing IMP-1, efflux − (MB9799) MITC95: concentration restoring susceptibility to imipenem at 2 μg/mL in the presence of a class A
Outline: (§1)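 Microbroth MIC tests in PAO1-background strains with fixed imipenem and/or ceftazidime, usually at the CLSI breakpoint, plus fixed class A/C β-lactamase inhibitor against AmpC. MBL inhibitor titrated; concentration restoring susceptibility recorded and compared as fold difference between efflux+ MB9798 and efflux− MB9799.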

[2] = tested on: Serratia marcescens expressing IMP-1 (CL5741); type: cell-based; settings: for Serratia marcescens expressing IMP-1 (CL5741) MITC95: with imipenem 1 μg/ml, 95% inhibition of bacterial growth; for Serratia marcescens MITC95: IMP-1 strain CL5741, with imipenem 1 μg/ml, 95% inhibition of growth
Outline: (§2)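 Clinical isolates (E. coli NDM-1, S. marcescens IMP-1, K. pneumoniae VIM-1) were diluted 1:100 from saline suspension into 1.1×CAMHB and exposed to test compound with imipenem at 1 μg/ml. Plates were incubated at 35° C for 22 hours to 24 hours, and growth was read by absorbance.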

[3] = tested on: Escherichia coli expressing NDM-1 (CLB30005, CLB30016); type: cell-based; settings: with imipenem 1 μg/ml; for Escherichia coli expressing NDM-1 (CLB30016) MITC95: 95% inhibition of bacterial growth; for Escherichia coli MITC95: NDM-1 strain, 95% inhibition of growth
Outline: as §2

[4] = tested on: Klebsiella pneumoniae expressing VIM-1 (IHMA599644); type: cell-based; settings: for Klebsiella pneumoniae expressing VIM-1 (IHMA599644) MITC95: with imipenem 1 μg/ml, 95% inhibition of bacterial growth; for Klebsiella pneumoniae MITC95: VIM-1 strain IHMA599644, with imipenem 1 μg/ml, 95% inhibition of growth
Outline: as §2

[5] = biological target: VIM-1 (Pseudomonas aeruginosa (strain ATCC 15692 / DSM 22644 / CIP 104116 / JCM 14847 / LMG 12228 / 1C / PRS 101 / PAO1), UniProt A0A0F7KYQ8); assay: biochemical; settings: CCF2-FA substrate, 30 pM enzyme, 2 hours at 25° C.
Outline: (§3)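 Test compound, enzyme and the FRET cephalosporin substrate CCF2-FA are incubated together for 2 hours at 25° C. Cleavage is followed by fluorescence, and IC50 values are derived from semi-logarithmic inhibition curves fitted with a 4-parameter model.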

[6] = biological target: IMP-1 (Serratia marcescens, UniProt P52699); assay: biochemical; type: biochemical; settings: CCF2-FA substrate, 2 pM enzyme, 2 hours at 25° C.
Outline: as §3

[7] = biological target: NDM-1 (Klebsiella pneumoniae, UniProt C7C422); assay: biochemical; type: biochemical; settings: fluorescence assay, CCF2-FA substrate, 1 pM enzyme, 2 hours at 25° C.; read-out: NDM-1 IC50
Outline: as §3

[8] = tested on: Pseudomonas aeruginosa efflux+ (MB9798), IMP-1; type: cell-based; parameters: Concentration of metallo-β-lactamase inhibitor which restores susceptibility of efflux + (MB9798) strain to imipenem: unit not given here; settings: C, D serine β-lactamase inhibitor closely related to relebactam; for P. aeruginosa expressing IMP-1, efflux + (MB9798) MITC95: concentration restoring susceptibility to imipenem at 2 μg/mL in the presence of a class A
Outline: as §1

[9] = tested on: Pseudomonas aeruginosa MB9798 vs MB9799
Outline: as §1

[10] = fluorescence assay, read-out: VIM-1 IC50
[11] = fluorescence assay, read-out: IMP-1 IC50
[12] = ratio MITC95 PA_9798/MITC95 PA_9799

Sequence of IMP-1 (P52699 whole entry, looked up, species assumed): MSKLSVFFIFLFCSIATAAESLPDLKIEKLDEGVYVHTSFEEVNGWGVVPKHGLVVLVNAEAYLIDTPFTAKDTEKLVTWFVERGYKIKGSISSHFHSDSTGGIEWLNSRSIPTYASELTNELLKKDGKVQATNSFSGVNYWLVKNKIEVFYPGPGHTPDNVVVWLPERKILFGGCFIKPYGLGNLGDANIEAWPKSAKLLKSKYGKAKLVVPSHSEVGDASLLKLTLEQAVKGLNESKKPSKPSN
Sequence of NDM-1 (C7C422 whole entry, looked up, species assumed): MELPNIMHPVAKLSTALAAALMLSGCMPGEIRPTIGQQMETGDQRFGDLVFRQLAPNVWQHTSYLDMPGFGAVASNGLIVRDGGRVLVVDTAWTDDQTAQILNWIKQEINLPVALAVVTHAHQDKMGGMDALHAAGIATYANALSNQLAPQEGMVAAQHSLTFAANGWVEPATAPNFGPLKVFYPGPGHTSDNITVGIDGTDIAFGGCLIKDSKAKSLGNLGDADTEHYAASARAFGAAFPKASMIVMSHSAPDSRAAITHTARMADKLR

| Structure (SMILES) | P. aeruginosa expressing IMP-1, efflux − (MB9799) MITC95 [1] | Serratia marcescens expressing IMP-1 (CL5741) MITC95 [2] | Escherichia coli expressing NDM-1 (CLB30016) MITC95 [3] | Klebsiella pneumoniae expressing VIM-1 (IHMA599644) MITC95 [4] | IC50 [5, 10] | IC50 [6, 11] | IC50 [7] | P. aeruginosa expressing IMP-1, efflux + (MB9798) MITC95 [8] | Efflux ratio [9, 12] | Concentration of metallo-β-lactamase inhibitor which restores susceptibility of efflux − (MB9799) strain to imipenem ([1]; efflux− MB9799, imipenem at 2 μg/mL, in the presence of a class A) | Serratia marcescens MITC95 [2] | Escherichia coli MITC95 [3] | Klebsiella pneumoniae MITC95 [4] | IC50 ([5]; VIM-1 IC50, fluorescence assay) | IC50 ([6]; IMP-1 IC50, fluorescence assay) | Concentration of metallo-β-lactamase inhibitor which restores susceptibility of efflux + (MB9798) strain to imipenem ([8]; efflux+ MB9798, imipenem at 2 μg/mL, in the presence of a class A) | Efflux ratio ([9]; fold difference between efflux+ (MB9798) and efflux− (MB9799) strains, imipenem at 2 μg/mL) |
| --- | --- | --- | --- | --- | --- | --- | --- | --- | --- | --- | --- | --- | --- | --- | --- | --- | --- |
| Nc1nc2cccc(-c3ccc(S(=O)(=O)N4CCNCC4)c(S(N)(=O)=O)c3-c3nn[nH]n3)c2[nH]1 [Example 157, 3-(2-amino-3H-benzo[d]imidazol-4-yl)-6-(piperazin-1-ylsulfonyl)-2-(2H-tetrazol-5-yl)benzenesulfonamide] | 0.4453 µM | 0.8906 µM | 0.125 µM | 1.281 µM | 827 pM | 3090 pM | 320 pM | 1.781 µM | 4.00 |  |  |  |  |  |  |  |  |
| C[C@@H](N)CNS(=O)(=O)c1ccc(-c2cccc3sc(N)nc23)c(-c2nn[nH]n2)c1S(N)(=O)=O [Example 390, 4-(2-amino-1,3-benzothiazol-4-yl)-N^1-[(2R)-2-aminopropyl]-3-(2H-tetrazol-5-yl)benzene-1,2-disulfonamide] |  |  |  |  |  |  | 60.5 pM |  |  | 1.563 | 1.563 µM | 3.125 µM | 3.125 µM | 330 pM | 341 pM | 0.7813 | 0.50 |
| CC1(NS(=O)(=O)c2ccc(-c3cccc4sc(N)nc34)c(-c3nnn[nH]3)c2S(N)(=O)=O)CCCNC1 (stereo not drawn) [Example 57, 4-(2-amino-1,3-benzothiazol-4-yl)-N1-(3-methylpiperidin-3-yl)-3-(1H-tetrazol-5-yl)benzene-1,2-disulfonamide] | 3.125 µM | 6.25 µM | 3.125 µM | 3.125 µM | 355 pM | 554 pM | 85.3 pM | 3.125 µM | 1.00 |  |  |  |  |  |  |  |  |
| NC[C@@H](N)CNS(=O)(=O)c1ccc(-c2cnc(N)s2)c(-c2nn[nH]n2)c1S(N)(=O)=O [Example 377, (R)-4-(2-aminothiazol-5-yl)-N1-(2,3-diaminopropyl)-3-(2H-tetrazol-5-yl)benzene-1,2-disulfonamide] | 0.7813 µM |  |  |  | 885 pM | 1180 pM | 573 pM | 1.563 µM | 2.00 |  | 1.563 µM | 0.7813 µM | 3.125 µM |  |  |  |  |
| Nc1nc2c(-c3ccc(S(=O)(=O)NC4CCNCC4)c(S(N)(=O)=O)c3-c3nn[nH]n3)cccc2[nH]1 [Example 260, 4-(2-amino-1H-benzo[d]imidazol-4-yl)-N1-(piperidin-4-yl)-3-(1H-tetrazol-5-yl)benzene-1,2-disulfonamide] | 0.7813 µM |  |  |  | 151 pM | 648 pM | 43.1 pM | 0.7813 µM | 1.00 |  | 1.563 µM | 0.7813 µM | 1.563 µM |  |  |  |  |
| CNc1nc2c(-c3ccc(S(=O)(=O)N[C@H]4CCNC4)c(S(N)(=O)=O)c3-c3nn[nH]n3)cccc2[nH]1 [Example 295, (S)-4-(2-(methylamino)-1H-benzo[d]imidazol-4-yl)-N1-(pyrrolidin-3-yl)-3-(2H-tetrazol-5-yl)benzene-1,2-disulfonamide] | 0.7813 µM |  |  |  | 172 pM | 775 pM | 56.1 pM | 0.7813 µM | 1.00 |  | 0.7813 µM | 0.7813 µM | 1.563 µM |  |  |  |  |
| Nc1nc2c(-c3ccc(S(=O)(=O)NC4C5CNCC54)c(S(N)(=O)=O)c3-c3nnn[nH]3)cccc2s1.O=C(O)C(F)(F)F (stereo not drawn) [Example 111, 6-(4-(2-aminobenzo[d]thiazol-4-yl)-2-sulfamoyl-3-(1H-tetrazol-5-yl)phenylsulfonamido)-3-azabicyclo[3.1.0]hexan-3-ium 2,2,2-trifluoroacetate] | 1.563 µM | 1.563 µM | 1.563 µM | 3.125 µM | 298 pM | 429 pM | 74.6 pM | 0.7813 µM | 0.50 |  |  |  |  |  |  |  |  |
| NCCn1nc2cccc(-c3ccc(S(=O)(=O)N[C@@H]4CCNC4)c(S(N)(=O)=O)c3-c3nn[nH]n3)c2n1 [Example 279, (R)-4-(2-(2-aminoethyl)-2H-benzo[d][1,2,3]triazol-4-yl)-N1-(pyrrolidin-3-yl)-3-(2H-tetrazol-5-yl)benzene-1,2-disulfonamide] | 0.7813 µM |  |  |  |  | 3030 pM | 232 pM | 0.7813 µM | 1.00 |  | 0.7813 µM | 0.7813 µM | 0.7813 µM | 133 pM |  |  |  |
| Nc1nc2c(-c3ccc(S(=O)(=O)NC4CC5CNC4C5)c(S(N)(=O)=O)c3-c3nnn[nH]3)cccc2s1 (stereo not drawn) [Example 89, 4-(2-aminobenzo[d]thiazol-4-yl)-N^1-(2-azabicyclo[2.2.1]heptan-6-yl)-3-(1H-tetrazol-5-yl)benzene-1,2-disulfonamide] | 1.563 µM | 3.125 µM | 6.25 µM | 6.25 µM | 230 pM | 568 pM | 58.1 pM | 1.563 µM | 1.00 |  |  |  |  |  |  |  |  |
| Nc1nc2c(-c3ccc(S(=O)(=O)N4CC(N)C4)c(S(N)(=O)=O)c3-c3nn[nH]n3)cccc2s1 [Example 147, 6-((3-aminoazetidin-1-yl)sulfonyl)-3-(2-aminobenzo[d]thiazol-4-yl)-2-(2H-tetrazol-5-yl)benzenesulfonamide] | 3.125 µM | 6.25 µM | 25 µM | 12.5 µM | 559 pM | 494 pM | 550 pM | 3.125 µM | 1.00 |  |  |  |  |  |  |  |  |
| Nc1nc2c(-c3ccc(S(=O)(=O)N[C@H]4CN[C@H](CO)C4)c(S(N)(=O)=O)c3-c3nnn[nH]3)cccc2[nH]1 [Example 172, 4-(2-amino-1H-benzo[d]imidazol-4-yl)-N^1-((3R,5S)-5-(hydroxymethyl)pyrrolidin-3-yl)-3-(1H-tetrazol-5-yl)benzene-1,2-disulfonamide] | 0.7813 µM | 0.7813 µM | 0.5859 µM | 1.563 µM |  | 509 pM | 50 pM | 0.3906 µM | 0.50 |  |  |  |  | 159 pM |  |  |  |
